Source: patent publication US20100210722A1, “COMPOSITION FOR PREVENTING OR TREATING LIPID METABOLIC DISORDERS COMPRISING FUCOXANTHIN OR MARINE PLANT EXTRACT CONTAINING SAME” (AMICOGEN, INC., priority 2007, published 2010)
Marks after values point to notes of the source that are not given here.

How the values were obtained:
Type in all cases: in vivo, C57BL/6N/CriBgi mice
[1] = Triglyceride and cholesterol level in plasma; details: high fat diet, 6 weeks, fasted 12 hours
Method: Seventy (70) 4-week-old male C57BL/6N/CriBgi mice weighing 14 g were purchased from Orient, and reared in separate cages maintained at 24° C. and relative humidity of 55%, providing light from 08:00 until 20:00. The mice were accustomed while providing a pellet type diet for a week. The mice, which weighed 18.5-18.7 g, were grouped into seven groups by the randomized block design. Each group was given a different diet, as follows.
(§1) Test diets were as follows: “normal diet group”=AIN-76 semisynthetic diet of Teklad (Madison, Wl, USA); “high fat diet group”=normal diet+10% of corn oil and 10% of lard; “test group I”=high fat diet+fucoxanthin extract of Example 1 (fucoxanthin content=0.05%); “test group II”=high fat diet+fucoxanthin extract of Example 1 (fucoxanthin content=0.2%); “test group III”=high fat diet+fucoxanthin extract of Example 2 (fucoxanthin content=0.05%); “test group IV”=high fat diet+fucoxanthin extract of Example 2 (fucoxanthin content=0.2%). The 6 diets (normal diet, high fat diet, and test I, II, III and IV) were given to the animals for 6 weeks. Diet intake was recorded every day, and body weight was measured once a week.
The mice fed with the test diets for 6 weeks of Reference Example 1 were fasted for 12 hours. The mice were anesthetized first by ether inhalation, and then by intramuscular injection of ketamine-HCl (Yuhan). […] Plasma was separated by carrying out centrifuge at 3,000 rpm for 15 minutes. The separated plasma was stored at −70° C.

[2] = test system: peroxisome proliferator-activated receptor α (PPARα) mRNA; assay: Expression of mRNA for PPARα in liver tissue (real-time PCR)
[3] = test system: FAS mRNA; assay: Expression of mRNA for FAS in adipose tissue (real-time PCR); details: normal diet = 1.00, GAPDH internal marker
Description: as §1
5 mL of Trizol was added to 0.5 g of white adipose tissue. After pulverizing in liquid nitrogen using a mortar, the tissue was added to 1 mL of chloroform. […] The isolated RNA was diluted and absorbance was measured at 260 nm using a UV spectrometer. […]
Thus prepared cDNA was […] 10-fold, and primers for analyzing the expression of the respective genes (CPT, β-oxidation, FAS, ME and G6PD) were obtained from Genotech (Daejeon, Korea). […] Fluorescence signals were monitored for each cycle and threshold cycle (Cr) was analyzed for quantitative analysis of mRNA for the test groups (Applied Biosystems, SDS7000) (Livak, 2001). […]

[4] = test system: β-oxidation; assay: Mitochondrial β-oxidation activity; details: mitochondrial fraction, high fat diet, 6 weeks
Description: as §1
Mitochondrial β-oxidation activity was measured from the degree of reduction of NAD to NADH using palmitoyl-CoA. Specifically, 10 μL of mitochondrial fraction was added to a reaction solution containing 50 mM Tris-HCl (pH 8.0), 20 mM NAD, 0.33 M DTT, 1.5% BSA (1.5 g/100 mL), 2% Triton X-100 (2 g/100 mL), 10 mM CoA, 1 mM FAD, 100 mM KCN and 5 mM palmitoyl-CoA to initiate reaction. Then, change of absorbance was measured at 37° C. and 340 nm for 5 minutes. β-Oxidation activity was calculated as nmol of NADH produced per 1 mg of mitochondrial protein per minute.

[5] = test system: glucose-6-phosphate dehydrogenase (G6PD); assay: G6PD activity in liver tissue; details: high fat diet, 6 weeks
Description: as §1
The supernatant was centrifuged again at 12,000×g for 15 minutes. Then, the supernatant was subjected to high-speed centrifuging (Beckman, Optima TLX-120, USA) at 100,000×g for 1 hour. Then, change of the activity of enzymes involved in the synthesis of fatty acid—fatty acid synthase (FAS), glucose-6-phosphate dehydrogenase (G6PD) and malic enzyme (ME)—was measured.
The G6PD enzyme is an enzyme that supplied reducing energy required for the synthesis of fatty acid. […] G6PD activity was measured at 340 nm by the degree of reduction of NADP^+ to NADPH by G6PD. […] G6PD activity was calculated as nmol of NADPH produced per 1 mg of protein in cell per minute.

[6] = test system: phosphatidate phosphohydrolase (PAP); assay: PAP activity in liver tissue; details: high fat diet, 6 weeks
Description: as §1

[7] = fucoxanthin content 0.05% (Test I/III)
[8] = fucoxanthin content 0.2% (Test II/IV)

CC(=O)O[C@H]1CC(C)(C)C(=C=C/C(C)=C/C=C/C(C)=C/C=C/C=C(C)/C=C/C=C(\C)C(=O)C[C@@]23O[C@]2(C)C[C@@H](O)CC3(C)C)[C@](C)(O)C1 [highly pure fucoxanthin, Fucoxanthin]
Cholesterol level in plasma [1, 7]: 2.35 ± 0.22^a mmol/L
Triglyceride level in plasma [1, 7]: 1.15 ± 0.07^b mmol/L
Cholesterol level in plasma [1, 8]: 2.35 ± 0.11^b mmol/L
Triglyceride level in plasma [1, 8]: 1.24 ± 0.07^b mmol/L
Expression of mRNA, PPARα ([2]; normal diet = 1.00, fucoxanthin content 0.05% (Test I/III)): 1.22 ± 0.08^ab
Expression of mRNA, PPARα ([2]; normal diet = 1.00, fucoxanthin content 0.2% (Test II/IV)): 1.57 ± 0.36^b
Expression of mRNA, FAS [3, 7]: 0.51 ± 0.03^abc
Expression of mRNA, FAS [3, 8]: 0.28 ± 0.05^a
β-Oxidation activity [4, 7]: 9.46 ± 2.56^bc mmol/min/mg protein
β-Oxidation activity [4, 8]: 13.28 ± 3.79^c mmol/min/mg protein
G6PD activity [5, 7]: 51.53 ± 4.31^a mmol/min/mg protein
G6PD activity [5, 8]: 50.51 ± 3.74^a mmol/min/mg protein
PAP activity [6, 7]: 21.62 ± 1.54^a mmol/min/mg protein
PAP activity [6, 8]: 26.14 ± 1.03^ab mmol/min/mg protein
